The Kd is the constant that tells how readily two partners part at equilibrium.

The text below walks through data of PubChem BioAssay AID608 (Sanford-Burnham Center for Chemical Genomics, 2007).

Each structure is given as a SMILES string. The source made the active and inactive calls. No rule for the calls is given here.

Chain of Peptidyl-prolyl cis-trans isomerase FKBP1A (Homo sapiens) (P62942 whole entry, looked up): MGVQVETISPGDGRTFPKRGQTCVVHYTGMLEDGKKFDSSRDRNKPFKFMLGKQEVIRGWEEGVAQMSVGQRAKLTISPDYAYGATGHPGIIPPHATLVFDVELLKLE

The test has as its target Peptidyl-prolyl cis-trans isomerase FKBP1A (Homo sapiens) (UniProt P62942). The test can be described thus: FKBP12 binders, biophysical, NMR detection (AID 608). The following applies: NMR binding, purified FKBP12.
In the case of `CC1(C)C=Cc2cc3ccc(=O)oc3cc2O1`, the Kd is > 4 mM (inactive).

As to `Cc1ccc(SCc2cc(=O)n3[nH]c(C)nc3n2)cc1`, the Kd was > 4 mM (inactive).

As for `O=C(O)C1CN2CCC1CC2` (stereo not drawn), the Kd was > 4 mM (inactive).

Consider `CC(=O)N1CCc2ccccc2C1CC(=O)O` (stereo not drawn), for which the Kd is > 4 mM (inactive).

`COc1cc([C@H]2Oc3cc([C@H]4Oc5cc(O)cc(O)c5C(=O)[C@@H]4O)ccc3O[C@@H]2CO)ccc1O`: the Kd was > 4 mM (inactive).

On to `Cc1ccc(/C=C2/C(=O)N=C(N)N2C)s1`, for which the Kd was > 4 mM (inactive).

For the compound `NC1=NC(=O)/C(=C/c2ccccc2[N+](=O)[O-])S1`, the Kd is > 4 mM (inactive).

Turning to `COC(=O)NCc1cc2cc(Cl)ccc2[nH]1`, the Kd was > 4 mM (inactive).

As for `Cc1nc(-c2cccc(N)c2)cs1`, the Kd is > 4 mM (inactive).

On to `O=C(Nc1cccc(C(F)(F)F)c1)c1cccnc1`, for which the Kd was > 4 mM (inactive).

`CSc1ccccc1NC(=O)c1cnccn1`: the Kd was > 4 mM (inactive).

`Cc1ccnc(NS(=O)(=O)c2ccccc2)n1`: the Kd is > 4 mM (inactive).

Regarding `Cc1noc(C)c1C(=O)N1CCC(Cc2ccccc2)CC1`, the Kd was > 4 mM (inactive).

On to `O=c1ccc(=O)n(CN2CCc3ccccc3C2)[nH]1`, for which the Kd was > 4 mM (inactive).

On to `OCc1nccn1Cc1ccccc1`, for which the Kd is > 4 mM (inactive).

As to `CN(C)C(=O)CSc1nc2ccccc2c(=O)[nH]1`, the Kd was > 4 mM (inactive).

As to `c1ccc2[nH]c(SCc3cscn3)nc2c1`, the Kd result was “inactive”.

`Cc1c(C)[n+](=O)c(-c2cccs2)c(C)n1[O-]`: the Kd is > 4 mM (inactive).

As to `O=C(Nc1cccnc1)c1c(F)cccc1F`, the Kd is > 4 mM (inactive).

For `Cc1cc(C)n(CCC(=O)O)n1`, the Kd is > 4 mM (inactive).

For the compound `C/C(=C\CO)CC[C@H](C)CCC[C@H](C)CCCC(C)C`, the Kd was > 4 mM (inactive).

As for `CC(=O)OC/C=C(\C)CC/C=C(\C)CC/C=C(\C)CC/C=C(\C)CC/C=C(\C)CC/C=C(\C)CC/C=C(\C)CC/C=C(\C)CCC=C(C)C`, the Kd was > 4 mM (inactive).

In the case of `Nc1cccnc1N1CCOCC1`, the Kd was > 4 mM (inactive).

With `O=C(c1ccco1)N1CCn2c1nc1ccccc12`, the Kd is > 4 mM (inactive).

As for `CN1CCn2c1nc(N1CCOCC1)nc2=O`, the Kd is > 4 mM (inactive).

For `COc1cnn(-c2ccccc2)c(=O)c1N(C)C`, the Kd is > 4 mM (inactive).

`O=C1O[C@H](C(O)CO)C(O)=C1O` (stereo partly drawn): the Kd was > 4 mM (inactive).

Consider `CC(=O)OC1CCC2(C)C3CC(=O)C4(C)C(CC5OC6(CCC(C)CO6)[C@@H](C)C54)C3CC[C@H]2C1` (stereo partly drawn), for which the Kd was > 4 mM (inactive).

Take `O=C(O)CC1NCCNC1=O` (stereo not drawn): the Kd is > 4 mM (inactive).

In the case of `NC(=O)C1CCN(CN2C(=O)c3ccccc3C2=O)CC1`, the Kd was > 4 mM (inactive).

Take `COc1cc(C/C=C/c2ccccc2)c(OC)cc1O`: the Kd was > 4 mM (inactive).

For `Cc1ccccc1NC(=O)CC1NCCNC1=O` (stereo not drawn), the Kd is > 4 mM (inactive).

For the compound `Cc1nn2c(-c3ccncc3)nnc2c2ccccc12`, the Kd was > 4 mM (inactive).

For the compound `CCOC(=O)c1cnn2ccccc12`, the Kd is > 4 mM (inactive).

As to `Cc1nc(-c2ccccc2)ncc1CO`, the Kd is > 4 mM (inactive).

For `Cc1nn2c(=O)nc3sc4c(c3c2[nH]c1=O)CCCC4`, the Kd is > 4 mM (inactive).

Turning to `CC1(C)C2CC(=O)[C@]3(C)C(CC[C@@]4(C)[C@H](c5ccoc5)OC(=O)[C@H]5O[C@]543)[C@@]2(C)C(=O)C[C@H]1O` (stereo partly drawn), the Kd is > 4 mM (inactive).

For the compound `CCOC(=O)CN1C(=O)c2ccccc2C1=O`, the Kd was > 4 mM (inactive).

On to `O=C(O)C1CCCN1Cc1c[nH]c2ccccc12` (stereo not drawn), for which the Kd was > 4 mM (inactive).

`O=c1[nH]cc(NCc2ccco2)c(=O)[nH]1`: the Kd was > 4 mM (inactive).

With `CC(=O)N1CN(C(C)=O)CN(C(C)=O)C1`, the Kd was > 4 mM (inactive).

Turning to `Clc1ncnc2[nH]ncc12`, the Kd was > 4 mM (inactive).

For the compound `OCc1ccc(OC(F)(F)F)cc1`, the Kd is > 4 mM (inactive).

With `Cc1ccc2c(c1)CC[C@H]1CC(=O)CC[C@]21C`, the Kd was > 4 mM (inactive).

For `O=C1CCC(=O)N1CN1CCOCC1`, the Kd is > 4 mM (inactive).

With `Cc1ccccc1NC(=O)N1CCOCC1`, the Kd was > 4 mM (inactive).

As to `CN(C(N)=O)C1(C)CCS(=O)(=O)C1` (stereo not drawn), the Kd is > 4 mM (inactive).

As to `CC(C1OC(C)(C)C(O)C1O)[C@@H]1CC[C@]2(C)C3=CCC4C(C)(C)C(=O)CC[C@]4(C)C3CC[C@@]12C` (stereo partly drawn), the Kd is > 4 mM (inactive).

With `O=C(O)c1ncoc1-c1ccccc1`, the Kd is > 4 mM (inactive).

With `Oc1cccc(N2CCOCC2)c1`, the Kd is > 4 mM (inactive).

For `CC(O)(C(=O)O)c1ccccc1` (stereo not drawn), the Kd is > 4 mM (inactive).

As for `Cc1csc2nc3ccccc3c(=O)n12`, the Kd is > 4 mM (inactive).

Take `O=C(c1cccnc1Cl)N1CCOCC1`: the Kd was > 4 mM (inactive).

For the compound `CO[C@H]1[C@@H](O)[C@@H](C)O[C@H](O[C@H]2CCC3(C)C4CCC5(C)[C@@H](C6=CC(=O)OC6)CC[C@]5(O)[C@@H]4CC[C@]3(O)C2)[C@@H]1O` (stereo partly drawn), the Kd is > 4 mM (inactive).

Turning to `CC1=CC(=O)NC2C=CC=CC12` (stereo not drawn), the Kd was > 4 mM (inactive).

Turning to `CC(=O)O[C@@H]1CC2C(C)(C)C(=O)C3OC3[C@]2(C)C2CC[C@@]3(C)[C@H](c4ccoc4)OC(=O)C4OC43[C@@]21C` (stereo partly drawn), the Kd was > 4 mM (inactive).

In the case of `O=c1cc(-c2ccccc2)oc2c(O)c(O)ccc12`, the Kd was > 4 mM (inactive).

Turning to `NC(=O)Cn1cnc2c(cnn2-c2ccccc2)c1=O`, the Kd is > 4 mM (inactive).

Take `CC1(C)C2CC(=O)[C@]3(C)C(CC[C@@]4(C)[C@H](c5ccoc5)OC(=O)[C@H]5O[C@]543)[C@@]2(C)C=C[C@@H]1O` (stereo partly drawn): the Kd was > 4 mM (inactive).

Regarding `Cn1cnc2c(=S)[nH]c(=O)n(Cc3ccccc3)c21`, the Kd is > 4 mM (inactive).

Consider `Cc1cc(C(=O)Nc2cccnc2)cs1`, for which the Kd was > 4 mM (inactive).

As to `CCOC(=O)Cc1nc2ccccc2[nH]1`, the Kd was > 4 mM (inactive).

With `Nc1ccc(O)cn1`, the Kd is > 4 mM (inactive).

Take `O=C(NC1=NCCS1)c1csc2ccccc12`: the Kd is > 4 mM (inactive).

With `CN1C(=O)C2C=CC1C1C(=O)N(c3ccccc3)C(=O)C21` (stereo not drawn), the Kd is > 4 mM (inactive).

As to `Nc1nc(CSc2ncn(-c3ccccc3)n2)cs1`, the Kd was > 4 mM (inactive).

Consider `OCc1cccs1`, for which the Kd was > 4 mM (inactive).

`CC(=O)OC(C)(C)[C@@H]1Cc2cc3ccc(=O)oc3cc2O1`: the Kd was > 4 mM (inactive).

Take `CCC(CO)NC(=O)c1snnc1C` (stereo not drawn): the Kd is > 4 mM (inactive).

Take `COC(=O)c1ccc2snnc2c1`: the Kd is > 4 mM (inactive).

With `COC(=O)Nc1nnc(-c2ccncc2)s1`, the Kd is > 4 mM (inactive).

Take `C1CCN2C[C@@H]3C[C@H](CN4CCCC[C@@H]34)[C@H]2C1`: the Kd was > 4 mM (inactive).

`Cn1c(=O)c2[nH]cnc2n(C)c1=O`: the Kd was > 4 mM (inactive).

On to `Cc1ccc(NC(=O)C2CCN(S(C)(=O)=O)CC2)cc1`, for which the Kd is > 4 mM (inactive).

Take `O=C1NC(=O)C(Cc2ccccc2)C(=O)N1`: the Kd was > 4 mM (inactive).

For `CC1/C(=N/O)C[C@@H]2C[C@H]1C2(C)C` (stereo partly drawn), the Kd is > 4 mM (inactive).

As to `COc1cnn(Cc2ccccc2)c(=O)c1Cl`, the Kd was > 4 mM (inactive).

Take `O=C(Cc1c(F)cccc1Cl)Nc1ccncc1`: the Kd was > 4 mM (inactive).

Consider `O=C(NCO)c1ccc([N+](=O)[O-])cc1`, for which the Kd was > 4 mM (inactive).

As for `S=C=NCc1ccccc1`, the Kd is > 4 mM (inactive).

As to `Cc1nc2sc3c(c2c(=N)n1N)CC(C)(C)OC3`, the Kd is > 4 mM (inactive).

Take `COc1cc2cc[n+]3cc4c(OC)c(OC)ccc4cc3c2cc1OC`: the Kd was > 4 mM (inactive).

As to `COc1ccc2nc(NC(=O)c3cnccn3)sc2c1`, the Kd is > 4 mM (inactive).

With `O=C(O)Cn1nnnc1-c1ccc(F)cc1`, the Kd is > 4 mM (inactive).

Consider `COC(=O)C1CCc2ccccc2N1` (stereo not drawn), for which the Kd is > 4 mM (inactive).

Turning to `Cc1ccc(-c2nnc3sc(-c4ccncc4)nn23)cc1`, the Kd was > 4 mM (inactive).

On to `Cc1nccc(-c2cccc(N)c2)n1`, for which the Kd is > 4 mM (inactive).

In the case of `CC1(C)CC(=O)c2sc(N)nc2C1`, the Kd was > 4 mM (inactive).

Turning to `N#Cc1cccc(Cn2nnc(-c3ccccc3)n2)c1`, the Kd is > 4 mM (inactive).

For `O=C(O)C1(O)C[C@@H](O)C(O)[C@H](O)C1` (stereo partly drawn), the Kd was > 4 mM (inactive).

As for `COc1ccc(-c2coc3cc(O)ccc3c2=O)c(O)c1O`, the Kd was > 4 mM (inactive).

In the case of `CCC(=O)Oc1ccc(N2C(=O)CCC2=O)cc1`, the Kd was > 4 mM (inactive).

As for `COc1ccc2c(c1OC)C(=O)N(c1ncn[nH]1)C2`, the Kd was > 4 mM (inactive).

In the case of `N#Cc1nc(N2CCCCC2)nc(N2CCOCC2)n1`, the Kd is > 4 mM (inactive).

For `O=C(NCc1ccco1)c1cccc(F)c1`, the Kd is > 4 mM (inactive).

Consider `O=C(CSc1ncccn1)NCc1ccco1`, for which the Kd was > 4 mM (inactive).

For the compound `CC(C)(C)P(=O)(O)c1ccccc1`, the Kd was > 4 mM (inactive).

On to `Cc1ccc(C)n1NC(=O)c1ccco1`, for which the Kd was > 4 mM (inactive).

Regarding `CC(=O)NC1=NN(c2ccccc2)C(=O)C1`, the Kd was > 4 mM (inactive).

For the compound `CN1CCN(C2CCSC2)CC1` (stereo not drawn), the Kd is > 4 mM (inactive).

`CCSc1nc2ccccc2n1CC(N)=O`: the Kd is > 4 mM (inactive).

Turning to `NC(=O)CSc1nnc2ccc(-c3ccccn3)nn12`, the Kd was > 4 mM (inactive).

As for `Cc1nn(-c2ccccc2)nc1CN`, the Kd is > 4 mM (inactive).
